According to patent US8859620B2, “Phthalanilate compounds and methods of use” (University of Notre Dame du Lac, priority 2009, dated 2014):
In brackets after ≈: the same amount, converted by molar mass.

Tests used:
[1] = target: PBP2a (Staphylococcus aureus, UniProt P07944); assay: PBP2 assay (Villegas-Esterada et al.); assay type: biochemical; details: Table 10
Method: (§1) β-Lactamase Assays (TEM-1, P99, and OXA-10): The activity of the compounds of the invention (inhibitors) toward β-lactamases was evaluated using 96 well plates. The reaction mixture included 10 mM sodium phosphate, pH 7.0, 150 mM sodium chloride, 0.01% Triton X-100, 100 μM nitrocefin, 10 nM of β-lactamases (class A: TEM-1; class C: P99, or class D: OXA-10), and variable concentrations of the inhibitors in a total volume of 100 μL. β-Lactamases were pre-incubated with the compounds at room temperature for 5 minutes, and the assay was initiated by the addition of nitrocefin. The inhibition of the enzyme activity by the compounds was determined by monitoring color change (from yellow to red) of nitrocefin after 20 minutes. Stock solutions of the compounds were prepared in dimethyl sulfoxide (DMSO). No more than 5% DMSO was present in assays, unless noted otherwise. B1aR Assay: The surface domain of B1aR (1 μM) was added to each inhibitor (at various concentrations) in 100 mM sodium phosphate, 50 mM sodium bicarbonate, at pH 7.0. The reaction mixtures were incubated at room temperature for 20 minutes. BOCILLIN FL, a fluorogenic ligand, was added to a concentration of 20 μM in a final volume of 20 μL. The mixtures were incubated at 37° C. for 5 minutes, at which point the reactions were quenched by the addition of 15 μL of the SDS sample buffer (125 mM Tris, 4% SDS, 20% glycerol, 2% 2-mercaptoethanol, pH 6.8), and were boiled for 4 minutes. The samples were loaded onto 15% SDS-PAGE, the gel was developed and scanned using a Storm 840® Fluorimager. The fluorescent bands of BOCILLIN FL-labeled B1aR^S were analyzed by Image Quant 5.2 software. PBP2 Assay: The PBP2 assay was performed according to the methods of Villegas-Esterada et al. (J. Am. Chem. Soc. 2008, 130, 9212-9213).

[2] = target: P99 (class C β-lactamase) (Enterobacter cloacae, UniProt P05364); assay: β-Lactamase assay (nitrocefin colour change), P99; assay type: biochemical; details: for P99: Table 10, class symbols x/xx/xxx, key not given; for IC50: nitrocefin 100 μM, 10 nM enzyme, 5 min pre-incubation, read-out: IC50s P99
P99 (class C β-lactamase), sequence (P05364 21-381): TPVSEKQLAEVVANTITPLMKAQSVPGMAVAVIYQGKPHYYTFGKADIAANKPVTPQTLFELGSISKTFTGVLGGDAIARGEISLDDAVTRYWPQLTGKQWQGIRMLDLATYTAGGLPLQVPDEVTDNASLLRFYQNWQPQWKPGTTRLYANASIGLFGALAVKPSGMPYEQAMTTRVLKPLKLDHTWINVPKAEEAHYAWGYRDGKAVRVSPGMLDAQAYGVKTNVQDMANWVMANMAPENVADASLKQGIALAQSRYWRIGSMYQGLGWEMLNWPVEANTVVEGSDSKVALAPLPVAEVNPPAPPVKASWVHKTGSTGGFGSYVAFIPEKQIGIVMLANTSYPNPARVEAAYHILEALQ
Method: as §1

[3] = target: surface domain of B1aR (Staphylococcus aureus, UniProt P18357); assay: B1aR assay (BOCILLIN FL labeling, SDS-PAGE); assay type: binding, Staphylococcus aureus (MRSA); details: Table 10; class symbols x/xx/xxx, key not given
surface domain of B1aR, sequence (P18357 331-585): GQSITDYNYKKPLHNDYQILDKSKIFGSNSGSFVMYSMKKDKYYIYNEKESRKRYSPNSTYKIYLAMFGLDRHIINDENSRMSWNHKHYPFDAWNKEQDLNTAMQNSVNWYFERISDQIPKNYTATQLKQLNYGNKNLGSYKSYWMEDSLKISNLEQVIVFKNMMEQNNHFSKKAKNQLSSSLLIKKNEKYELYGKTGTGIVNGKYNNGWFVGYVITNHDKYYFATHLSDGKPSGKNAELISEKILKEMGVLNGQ
Method: as §1

[4] = target: OXA-10 (class D β-lactamase) (Pseudomonas aeruginosa, UniProt P14489); assay: β-Lactamase assay (nitrocefin colour change), OXA-10; assay type: biochemical; details: for OXA-10: Table 10, class symbols x/xx/xxx, key not given; for IC50: nitrocefin 100 μM, 10 nM enzyme, 5 min pre-incubation, read-out: IC50s OXA-10
OXA-10 (class D β-lactamase), sequence (P14489 20-266, species assumed): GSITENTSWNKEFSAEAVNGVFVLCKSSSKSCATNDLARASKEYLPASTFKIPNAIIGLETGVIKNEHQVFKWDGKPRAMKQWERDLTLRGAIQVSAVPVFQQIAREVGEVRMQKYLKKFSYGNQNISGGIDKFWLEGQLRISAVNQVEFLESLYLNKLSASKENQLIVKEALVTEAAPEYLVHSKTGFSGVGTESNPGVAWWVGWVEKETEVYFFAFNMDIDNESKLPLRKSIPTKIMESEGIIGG
Method: as §1

[5] = target: TEM-1 (class A β-lactamase) (Escherichia coli, UniProt P62593); assay: β-Lactamase assay (nitrocefin colour change), TEM-1; assay type: biochemical; details: for TEM-1: Table 10, class symbols x/xx/xxx, key not given
TEM-1 (class A β-lactamase), sequence (P62593 24-286 limits assumed): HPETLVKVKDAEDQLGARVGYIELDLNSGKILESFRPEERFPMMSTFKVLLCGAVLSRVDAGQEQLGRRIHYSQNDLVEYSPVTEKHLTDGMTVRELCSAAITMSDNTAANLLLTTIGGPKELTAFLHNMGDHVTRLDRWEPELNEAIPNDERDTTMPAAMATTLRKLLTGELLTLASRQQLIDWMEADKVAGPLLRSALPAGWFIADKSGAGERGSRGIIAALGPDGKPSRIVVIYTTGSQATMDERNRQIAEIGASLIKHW
Method: as §1

[6] = system: methicillin-resistant strains of S. aureus; assay: MIC against methicillin-resistant S. aureus (Table 15); assay type: cell-based; details: Staphylococcus aureus, dissolved in 100% DMSO, diluted into Mueller Hinton II Broth to final 16 μg/mL
Source text: Table 15 illustrates the inhibition of methicillin-resistant strains of S. aureus by selected compounds of the invention.

[7] = system: S. aureus NRS100 (Mec^R); assay: MIC against S. aureus NRS100 (Table 14); assay type: cell-based, Staphylococcus aureus; details: for MIC: Staphylococcus aureus, compounds dissolved in DMSO or 1% sodium carbonate, read-out: MIC; for inhibitory activity (in words): Table 14
Method: The recited compounds were dissolved in DMSO or in 1% sodium carbonate and transferred into micro titer plate to final concentration of 1000 μg/mL.

[8] = system: S. aureus NRS11 (Mec^S); assay: MIC against S. aureus NRS11 (Table 13); assay type: cell-based, Staphylococcus aureus; details: for MIC: Staphylococcus aureus, compounds dissolved in DMSO or 1% sodium carbonate, read-out: MIC; for inhibitory properties (in words): Table 13
Method: All recited compounds were dissolved in DMSO or in 1% sodium carbonate and transferred to micro titer plates to final concentrations of 1000 μg/mL.

PBP2a, sequence (P07944 whole entry): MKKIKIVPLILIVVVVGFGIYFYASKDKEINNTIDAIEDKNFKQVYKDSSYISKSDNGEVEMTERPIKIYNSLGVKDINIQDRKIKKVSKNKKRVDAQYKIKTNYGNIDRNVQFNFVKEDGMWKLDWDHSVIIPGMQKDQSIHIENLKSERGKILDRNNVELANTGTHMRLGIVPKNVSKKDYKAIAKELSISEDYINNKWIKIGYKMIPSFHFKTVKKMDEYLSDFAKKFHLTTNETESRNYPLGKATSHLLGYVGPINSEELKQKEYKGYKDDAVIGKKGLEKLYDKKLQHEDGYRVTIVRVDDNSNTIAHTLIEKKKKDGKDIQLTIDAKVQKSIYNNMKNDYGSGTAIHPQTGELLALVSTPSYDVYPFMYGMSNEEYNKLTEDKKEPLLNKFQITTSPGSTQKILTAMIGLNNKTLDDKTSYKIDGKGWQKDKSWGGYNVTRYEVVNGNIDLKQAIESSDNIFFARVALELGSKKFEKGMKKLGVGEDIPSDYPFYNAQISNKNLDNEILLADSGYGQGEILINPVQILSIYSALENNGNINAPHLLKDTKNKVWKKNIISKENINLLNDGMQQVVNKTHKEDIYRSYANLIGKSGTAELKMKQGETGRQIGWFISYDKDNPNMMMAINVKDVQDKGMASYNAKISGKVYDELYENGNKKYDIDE

Row | SMILES | PBP2a* (inhibitory concentration) [1] | P99 [2] | BlaR [3] | OXA-10 [4] | TEM-1 [5] | IC50 [2] | IC50 [4] | IC50 [5] | MIC [6] | MIC [7] | MIC [8] | inhibitory properties (in words) [8] | inhibitory activity (in words) [7]
1 | CCC(CO)NC(=O)C1=C(C(=O)O)SCCS1 (centres unmarked) [Compound 126] | xx |  |  |  |  |  |  |  |  |  |  |  | 
2 | O=C(O)C1=C(C(=O)N[C@@H](CO)[C@@H](O)c2ccccc2)SCCS1 [Compound 127] | xx |  |  |  |  |  |  |  |  |  |  |  | 
3 | O=C(O)c1c(Br)c(Br)c(Br)c(Br)c1C(=O)Nc1ccc(Oc2ccccc2)cc1 [Compound 222] | xx |  |  |  |  |  |  |  |  |  |  |  | 
4 | CCCCCCCCOc1ccc(NC(=O)c2ccccc2C(=O)O)cc1 [Compound 270] |  | xxx | xx | xxx | xxx |  |  |  |  |  |  |  | 
5 | CCCCCCCCOc1ccc(NC(=O)c2c(F)c(F)c(F)c(F)c2C(=O)O)cc1 [Compound 271] |  | xxx | xxx | xxx | xxx |  |  |  |  |  |  |  | 
6 | CCCCCCCCCCCCCCCCOc1ccc(NC(=O)c2c(F)c(F)c(F)c(F)c2C(=O)O)cc1 [Compound 289] |  | xx | xxx | xxx |  | 1.2 ± 0.1 µM | 0.7 ± 0.15 µM | 23.1 ± 2.4 µM |  |  |  |  | 
7 | CCCCCCCCCCCCCCCCOc1ccc(NC(=O)c2c(Cl)c(Cl)c(Cl)c(Cl)c2C(=O)O)cc1 [Compound 290] |  | xxx | xxx | xxx |  | 0.4 ± 0.06 µM | 0.5 ± 0.05 µM | 0.6 ± 0.06 µM |  |  |  |  | 
8 | CCCCCCCCCCCCCCCCOc1ccc(NC(=O)c2c(Br)c(Br)c(Br)c(Br)c2C(=O)O)cc1 [Compound 291] |  | xxx | xx | xxx | xxx | 0.2 ± 0.02 µM | 0.3 ± 0.06 µM | 0.2 ± 0.04 µM |  |  |  |  | 
9 | CCCCCCCCOc1ccc(NC(=O)c2ccccc2C(=O)O)cc1Cl [Compound 300] | xxx | xx |  | xx | xxx | 10.3 ± 0.4 µM | 30.7 ± 2.8 µM | 0.7 ± 0.08 µM | 16 µg/mL (≈ 39.6 µM) | 8 µg/mL (≈ 19.8 µM) |  |  | 
10 | CCCCCCCCOc1ccc(NC(=O)c2c(F)c(F)c(F)c(F)c2C(=O)O)cc1Cl [Compound 301] | xxx | xxx | xxx | xxx | xx | 9.9 ± 1.7 µM | 23 ± 2 µM | 5.1 ± 1 µM |  | 16 µg/mL (≈ 33.6 µM) |  |  | 
11 | CCCCCCCCOc1ccc(NC(=O)c2c(Cl)c(Cl)c(Cl)c(Cl)c2C(=O)O)cc1Cl [Compound 302] |  |  |  |  |  |  |  |  | 4 µg/mL (≈ 7.38 µM) | 4 µg/mL (≈ 7.38 µM) |  |  | 
12 | CCCCCCCCOc1ccc(NC(=O)c2c(Br)c(Br)c(Br)c(Br)c2C(=O)O)cc1Cl [Compound 303] |  |  | xx |  |  |  |  |  | 4 µg/mL (≈ 5.56 µM) | 4 µg/mL (≈ 5.56 µM) |  |  | 
13 | CCCCCCCCCCOc1ccc(N(C)C(=O)c2c(Br)c(Br)c(Br)c(Br)c2C(=O)O)cc1 [Compound 316] |  |  | xx |  |  |  |  |  |  |  |  |  | 
14 | CCCCCCCCCCOc1ccc(N(C)C(=O)c2ccccc2C(=O)O)cc1 [Compound 318] |  |  | xxx |  |  |  |  |  |  |  |  |  | 
15 | CCCCCCCCCCOc1ccc(N(C)C(=O)c2c(F)c(F)c(F)c(F)c2C(=O)O)cc1 [Compound 319] |  |  | xxx |  |  |  |  |  |  |  |  |  | 
16 | CCCCCCCCCCOc1ccc(NC(=O)c2c(Br)c(Br)c(Br)c(Br)c2C(=O)O)cc1 [Compound 329] |  |  | xxx |  |  |  |  |  |  |  |  |  | 
17 | CCCCCCCCOc1ccc(NC(=O)c2c(Cl)c(Cl)c(Cl)c(Cl)c2C(=O)O)cn1 [Compound 345] |  | xxx |  | xxx | xxx | 27.8 ± 2.9 µM | 37.9 ± 6 µM | 4.9 ± 0.2 µM | 16 µg/mL (≈ 31.5 µM) | 16 µg/mL (≈ 31.5 µM) | 16 µg/mL (≈ 31.5 µM) | significant inhibitory properties | significant inhibitory activity
18 | CCCCCCCCOc1ccc(NC(=O)c2c(Br)c(Br)c(Br)c(Br)c2C(=O)O)cn1 [Compound 346] |  | xxx |  | xxx | xxx | 7.8 ± 1.2 µM | 13.1 ± 0.8 µM | 2.8 ± 0.3 µM | 8 µg/mL (≈ 11.7 µM) | < 8 µg/mL | < 8 µg/mL | significant inhibitory properties | significant inhibitory activity
19 | CC(Oc1ccc(NC(=O)c2c(Br)c(Br)c(Br)c(Br)c2C(=O)O)cc1Cl)c1ccccc1 (centres unmarked) [Compound 382] | xxx | xxx |  | xxx | xxx | 24.4 ± 1.9 µM | 26.6 ± 1.6 µM | 5.3 ± 1.1 µM |  | < 8 µg/mL | < 8 µg/mL |  | significant inhibitory activity
20 | Cc1ccccc1COc1ccc(NC(=O)c2c(Cl)c(Cl)c(Cl)c(Cl)c2C(=O)O)cc1Cl [Compound 385] | xxx | xx |  | xxx | xx |  |  |  |  | 16 µg/mL (≈ 30 µM) | 16 µg/mL (≈ 30 µM) | significant inhibitory properties | significant inhibitory activity
21 | Cc1ccccc1COc1ccc(NC(=O)c2c(Br)c(Br)c(Br)c(Br)c2C(=O)O)cc1Cl [Compound 386] | xxx | xxx | xxx | xxx | xxx | 15.3 ± 1.6 µM | 31.6 ± 3.5 µM | 7.4 ± 1.2 µM | 16 µg/mL (≈ 22.5 µM) | 8 µg/mL (≈ 11.2 µM) |  |  | 
22 | O=C(O)c1ccccc1C(=O)Nc1ccc(OCc2cccc(C(F)(F)F)c2)c(Cl)c1 [Compound 387] |  |  | xx |  |  |  |  |  |  |  |  |  | 
23 | O=C(O)c1c(Br)c(Br)c(Br)c(Br)c1C(=O)Nc1ccc(OCc2cccc(C(F)(F)F)c2)c(Cl)c1 [Compound 390] | xxx | xxx |  | xxx | xxx | 6 ± 0.8 µM | 14.2 ± 1.1 µM | 1.9 ± 0.1 µM | 8 µg/mL (≈ 10.5 µM) | < 8 µg/mL | < 8 µg/mL |  | significant inhibitory activity
24 | O=C(O)c1c(F)c(F)c(F)c(F)c1C(=O)Nc1ccc(Oc2cc(C(F)(F)F)cc(C(F)(F)F)c2)cc1 [Compound 412] |  |  | xx |  |  |  |  |  |  |  |  |  | 
25 | O=C(O)c1c(Cl)c(Cl)c(Cl)c(Cl)c1C(=O)Nc1ccc(Oc2cc(C(F)(F)F)cc(C(F)(F)F)c2)cc1 [Compound 413] | xxx | xxx |  | xxx | xxx | 31.2 ± 6.4 µM | 80.8 ± 7 µM | 27 ± 2.9 µM | 16 µg/mL (≈ 26.4 µM) | 8 µg/mL (≈ 13.2 µM) |  |  | 
26 | O=C(O)c1ccccc1C(=O)Nc1ccc(OCc2cccc(OC(F)(F)F)c2)c(Cl)c1 [Compound 417] |  |  | xx |  |  |  |  |  |  | 250 µg/mL (≈ 537 µM) |  |  | 
27 | O=C(O)c1c(F)c(F)c(F)c(F)c1C(=O)Nc1ccc(OCc2cccc(OC(F)(F)F)c2)c(Cl)c1 [Compound 418] |  |  | xxx | xx |  |  |  |  |  | 125 µg/mL (≈ 232 µM) |  |  | 
28 | O=C(O)c1ccc([N+](=O)[O-])cc1C(=O)Nc1ccc(OCc2cccc(OC(F)(F)F)c2)c(Cl)c1 [Compound 422] | xxx | xx | xxx | xx | xx |  |  |  |  | 125 µg/mL (≈ 245 µM) |  |  | 
